How the values were obtained:
Type in all cases: functional, Homo sapiens
[1] = Compound was evaluated for enhancing effect on vincristine accumulation in ovarian MDR cancer cells (2780AD) at concentration of 1.0 ug/mL.
[2] = Compound was evaluated for enhancing effect on vincristine accumulation in ovarian MDR cancer cells (2780AD) at concentration of 10 ug/mL.
[3] = 62 Compound was evaluated for enhancing effect on vincristine accumulation in ovarian MDR cancer cells (2780AD) at concentration of 1.0 ug/mL.

Structure (SMILES): COc1cccc2c1[C@H](OCc1ccccc1)[C@]1(O)CC(=O)C(C)=C([C@@H](Sc3ccccc3)[C@@H]2OCCOCc2ccccc2)C1(C)C
- Activity [1]: 106%
- Activity [2]: 211%

Structure (SMILES): COc1cccc2c1[C@H](O)[C@]1(O)CC(=O)C(C)=C([C@@H](Sc3ccccc3)[C@@H]2OCCBr)C1(C)C
- Activity [1]: 93%
- Activity [2]: 166%

Structure (SMILES): COc1cccc2c1[C@H](O)[C@]1(O)CC(=O)C(C)=C([C@@H](Sc3ccccc3)[C@@H]2OCCO)C1(C)C
- Activity [1]: 112%
- Activity [2]: 171%

Structure (SMILES): COc1cccc2c1[C@H](O)[C@]1(O)CC(O)C(C)=C([C@@H](Sc3ccccc3)[C@@H]2OCCO)C1(C)C (stereo partly specified)
- Activity [3]: 109%
- Activity [2]: 144%

Structure (SMILES): COc1cccc2c1[C@H](O)[C@]1(O)CC(=O)C(C)=C([C@@H](Sc3ccccc3)[C@@H]2OCCOCc2ccccc2)C1(C)C
- Activity [1]: 140%
- Activity [2]: 256%

Structure (SMILES): COc1cccc2c1[C@H](O)[C@]1(O)CC(=O)C(C)=C(C[C@@H]2OCCO)C1(C)C
- Activity [1]: 111%
- Activity [2]: 124%

Structure (SMILES): CC1=C2[C@@H](Sc3ccccc3)[C@H](OCCO)c3cccc(O)c3[C@H](OCc3ccccc3)[C@](O)(CC1=O)C2(C)C
- Activity [1]: 238%
- Activity [2]: 569%

Structure (SMILES): CC1=C2[C@@H](Sc3ccccc3)[C@H](OCCOCc3ccccc3)c3cccc(O)c3[C@H](OCc3ccccc3)[C@](O)(CC1=O)C2(C)C
- Activity [1]: 106%
- Activity [2]: 142%
